Measured values from patent US20260242395A1, “AMINOHETEROARYL KINASE INHIBITORS” (ALLORION THERAPEUTICS INC, priority 2022, published 2026).

Columns and labels:
[1] = target: T1, CDK4/CyclinD1 (Homo sapiens, UniProt P11802); experiment: CDK4/CyclinD1 kinase inhibitory activity (Caliper mobility shift); type: biochemical; details: enzyme 20 nM, ATP 672 uM, 28° C. 30 min; read-out: CDK4/Cyclin D1 IC50
T1 construct: purchased ProQinase 0142-0143-1
Protocol: CDK4/CyclinD1 kinase inhibitory activity (IC50): 5 μl of various dilutions of test compound in 1× kinase buffer (20 mM HEPES, pH 7.5, 10 mM MgCl2, 2 mM DTT and 0.01% Triton X-100) was mixed with 10 μL of either CDK4/Cyclin D1 (ProQinase, 0142-0143-1 #, final concentration 20 nM in 1× Kinase buffer) or in 384 plates and incubated at room temperature for 10 min. To initiate each reaction, 10 μL of peptide solution containing fluorescently-labeled-peptide 8(5-FAM-IPTSPITTTYFFFKKK-COOH, GL, 112396 #, final concentration 3000 nM) and ATP (final concentration 672 uM for CDK4/CyclinD1) in 1×Kinase buffer was added to each of the wells containing test compound and CDK4/CyclinD1 mixture. The reaction is then allowed to proceed at 28° C. for 30 min and terminated by the addition of 25 μL stop buffer (100 mM HEPES pH 7.5, 50 mM EDTA, 0.2% Coating Reagent #3 (Perkin Elmer, 760050 #) and 0.015% Brij-35).
(§1) Following the kinase reaction, Caliper EZ reader II (Downstream voltages: −500V, Upstream voltages: −2250V, Base pressure −0.5 PSI, Screen pressure −1.2 PSI) was used to separate the phosphorylated (product) and the unphosphorylated (substrate) fluorescently-labeled peptide 8 based on their different mobility. Both substrate and product were measured and the ratio of these values were used to generate % conversion by Caliper EZ reader II. These conversion values were then transformed into % inhibition of kinase activity using the formula: % Inhibition=[(MA−X)/(MA−MI)]×100% where MA=conversion value of DMSO only controls, MI=conversion value of no enzyme controls and X=conversion value at any given compound dose. IC50 values were then calculated by plotting dose-response curves and then using the XLfit application in Excel software.

[2] = target: T2, CDK6/CyclinD3 (Homo sapiens, UniProt Q00534); experiment: CDK6/CyclinD3 kinase inhibitory activity (Caliper mobility shift); type: biochemical; details: enzyme 15 nM, ATP 800 μM, 28° C. 30 min; read-out: CDK6/Cyclin D3 IC50
T2 construct: purchased Carna 04-107
T2 sequence (Q00534 whole entry): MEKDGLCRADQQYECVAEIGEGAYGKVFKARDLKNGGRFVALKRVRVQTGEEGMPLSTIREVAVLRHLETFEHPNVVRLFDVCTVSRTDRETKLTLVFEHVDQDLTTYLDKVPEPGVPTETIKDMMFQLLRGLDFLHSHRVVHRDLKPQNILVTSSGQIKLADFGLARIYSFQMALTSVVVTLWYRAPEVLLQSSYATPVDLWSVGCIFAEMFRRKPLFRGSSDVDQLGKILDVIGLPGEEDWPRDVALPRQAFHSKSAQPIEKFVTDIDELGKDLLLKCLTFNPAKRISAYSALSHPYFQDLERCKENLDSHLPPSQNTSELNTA
T2 sequence (P30281 whole entry partner): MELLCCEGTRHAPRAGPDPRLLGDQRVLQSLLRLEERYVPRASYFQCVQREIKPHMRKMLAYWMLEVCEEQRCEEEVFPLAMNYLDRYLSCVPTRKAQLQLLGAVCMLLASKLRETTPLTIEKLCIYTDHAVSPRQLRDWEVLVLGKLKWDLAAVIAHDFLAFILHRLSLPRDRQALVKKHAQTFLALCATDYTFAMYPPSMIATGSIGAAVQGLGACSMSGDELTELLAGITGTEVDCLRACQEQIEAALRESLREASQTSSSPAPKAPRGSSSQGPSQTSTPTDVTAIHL
Protocol: CDK6/CyclinD3 kinase inhibitory activity (IC50): 5 μl of various dilutions of test compound in 1× kinase buffer (50 mM HEPES pH 7.5, 10 mM MgCl2, 2 mM DTT and 0.01% Brij-35) was mixed with 10 μL of CDK6/CyclinD3 (Carna, 04-107 #, final concentration 15 nM in 1× Kinase buffer) in 384 plates and incubated at room temperature for 10 min. To initiate each reaction, 10 μL of peptide solution containing fluorescently-labeled -peptide 8(5-FAM-IPTSPITTTYFFFKKK-COOH, GL, 112396 #, final concentration 3000 nM) and ATP (final concentration 800 μM for CDK6/CyclinD3 in 1× Kinase buffer was added to each of the wells containing test compound and CDK6/CyclinD3. The reaction is then allowed to proceed at 28° C. for 30 min and terminated by the addition of 25 μL stop buffer (100 mM HEPES pH 7.5, 50 mM EDTA, 0.2% Coating Reagent #3 (Perkin Elmer, 760050 #) and 0.015% Brij-35).
as §1

T1 sequence (P11802 whole entry): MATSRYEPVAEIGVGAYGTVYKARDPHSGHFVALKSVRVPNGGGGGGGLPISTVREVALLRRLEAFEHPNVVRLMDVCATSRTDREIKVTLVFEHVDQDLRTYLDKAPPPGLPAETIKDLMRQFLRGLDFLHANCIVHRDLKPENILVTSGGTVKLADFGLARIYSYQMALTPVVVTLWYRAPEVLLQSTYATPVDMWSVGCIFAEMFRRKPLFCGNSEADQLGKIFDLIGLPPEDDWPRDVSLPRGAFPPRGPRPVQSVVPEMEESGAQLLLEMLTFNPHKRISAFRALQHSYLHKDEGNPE
T1 sequence (P24385 whole entry partner): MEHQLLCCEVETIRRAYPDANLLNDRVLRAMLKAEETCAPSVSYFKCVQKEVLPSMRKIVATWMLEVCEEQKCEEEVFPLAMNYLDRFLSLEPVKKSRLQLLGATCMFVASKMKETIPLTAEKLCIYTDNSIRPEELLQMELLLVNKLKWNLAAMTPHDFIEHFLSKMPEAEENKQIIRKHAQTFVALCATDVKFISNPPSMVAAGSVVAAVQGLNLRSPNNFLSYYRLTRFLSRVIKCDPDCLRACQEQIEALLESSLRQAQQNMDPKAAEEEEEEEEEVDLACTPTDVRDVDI

Compound | IC50 [1] [µM] | IC50 [2] [µM]
CC(C)(O)c1cnc2ccc(-c3nc(N[C@@H]4CCOC[C@H]4O)ncc3Cl)cc2c1 [Example 6, (3S,4R)-4-((5-chloro-4-(3-(2-hydroxypropan-2-yl)quinolin-6-yl)pyrimidin-2-yl)amino)tetrahydro-2H-pyran-3-ol] | 0.01 to 0.1 | 0.1 to 1
Cc1nc2c(cnc3ccc(-c4nc(N[C@@H]5CCOC[C@H]5O)ncc4Cl)cc32)[nH]1 [Example 10, (3S,4R)-4-((5-chloro-4-(2-methyl-3H-imidazo[4,5-c]quinolin-8-yl)pyrimidin-2-yl)amino)tetrahydro-2H-pyran-3-ol] | 0.1 to 1 | ≥ 1
Cc1n[nH]c2cnc3ccc(-c4nc(N[C@@H]5CCOC[C@H]5O)ncc4Cl)cc3c12 [Example 11, (3S,4R)-4-((5-chloro-4-(1-methyl-3H-pyrazolo[3,4-c]quinolin-8-yl)pyrimidin-2-yl)amino)tetrahydro-2H-pyran-3-ol] | 0.01 to 0.1 | 0.1 to 1
Cc1n[nH]c2c1-c1cc(-c3nc(N[C@@H]4CCOC[C@H]4O)ncc3Cl)ccc1OC2 [Example 13, (3S,4R)-4-((5-chloro-4-(1-methyl-3,4-dihydrochromeno[3,4-c]pyrazol-8-yl)pyrimidin-2-yl)amino)tetrahydro-2H-pyran-3-ol] | 0.01 to 0.1 | 0.1 to 1
O[C@@H]1COCC[C@H]1Nc1ncc(Cl)c(-c2cc(F)c3ncc(C4(O)CCC4)cc3c2)n1 [Example 16, (3S,4R)-4-((5-chloro-4-(8-fluoro-3-(1-hydroxycyclobutyl)quinolin-6-yl)pyrimidin-2-yl)amino)tetrahydro-2H-pyran-3-ol] | < 0.01 | 0.1 to 1
O[C@@H]1COCC[C@H]1Nc1ncc(Cl)c(-c2cc(F)c3ncc(-c4ncc[nH]4)cc3c2)n1 [Example 28] | 0.01 to 0.1 | 0.1 to 1
Cc1nc2c(F)cc(-c3nc(N[C@@H]4CCOC[C@H]4O)ncc3Cl)cc2c2c1CCNC2 [Example 33] | < 0.01 | 0.1 to 1
CC(C)(O)C1COc2c(F)cc(-c3nc(N[C@@H]4CCOC[C@H]4O)ncc3Cl)cc2C1 (some centres unmarked) [Example 46] | < 0.01 | 0.1 to 1
CC(C)(O)C1COc2c(F)cc(-c3nc(N[C@@H]4CCOC[C@H]4O)ncc3Cl)cc2C1 (some centres unmarked) [Example 47] | 0.01 to 0.1 | 0.1 to 1
[2H]c1nc2c(F)cc(-c3ccnc(N[C@@H]4CCOC[C@H]4O)n3)cc2c2c1CC1(CC1)NC2 [Example 66] | 0.01 to 0.1 | 0.1 to 1
Cc1nc2c(F)cc(-c3nc(N[C@@H]4CCOC[C@H]4O)ncc3Cl)cc2c2c1CC1(CC1)NC2 [Example 69] | < 0.01 | 0.1 to 1
[2H]c1nc(N[C@@H]2CCOC[C@H]2O)nc(-c2cc(F)c3nc([2H])c4c(c3c2)CNC2(CC2)C4)c1F [Example 71] | < 0.01 | 0.1 to 1
[2H]c1nc2c(F)cc(-c3nc(N[C@@H]4CCOC[C@H]4O)ncc3Cl)cc2c2c1CC1(CC1)NC2 [Example 72] | < 0.01 | 0.1 to 1
Cc1nc2c(F)cc(-c3ccnc(N[C@@H]4CCOC[C@H]4O)n3)cc2c2c1CC(C)(C)NC2 [Example 99] | 0.01 to 0.1 | ≥ 1
[2H]c1nc2c(F)cc(-c3ccnc(N[C@@H]4CCOC[C@H]4O)n3)cc2c2c1CC(C)(C)NC2 [Example 101] | < 0.01 | 0.1 to 1
[2H]c1nc(N[C@@H]2CCOC[C@H]2O)nc(-c2cc(F)c3nc(C)c4c(c3c2)CNC(C)(C)C4)c1Cl [Example 103] | < 0.01 | 0.1 to 1
Cc1cnc(N[C@@H]2CCOC[C@H]2O)nc1-c1cc(F)c2nc(C)c3c(c2c1)CNC(C)(C)C3 [Example 104] | 0.01 to 0.1 | ≥ 1
[2H]c1nc(N[C@@H]2CCOC[C@H]2O)nc(-c2cc(F)c3nc(C)c4c(c3c2)CNC(C)(C)C4)c1F [Example 105] | < 0.01 | 0.1 to 1
CC1(C)NCCc2cnc3c(F)cc(-c4nc(N[C@@H]5CCOC[C@H]5O)ncc4Cl)cc3c21 [Example 109] | < 0.01 | 0.1 to 1

Now from value to compound:

IC50 [1] [µM] | IC50 [2] [µM] | Compound
0.1 to 1 | 0.1 to 1 | Cc1cc(C(C)(C)O)c2cc(-c3nc(N[C@@H]4CCOC[C@H]4O)ncc3Cl)ccc2n1 [Example 4, (3S,4R)-4-((5-chloro-4-(4-(2-hydroxypropan-2-yl)-2-methylquinolin-6-yl)pyrimidin-2-yl)amino)tetrahydro-2H-pyran-3-ol]
< 0.01 | 0.1 to 1 | CC(C)(O)c1cnc2c(F)cc(-c3cc(N[C@@H]4CCOC[C@H]4O)ncc3Cl)cc2c1Cl [Example 42]
< 0.01 | 0.1 to 1 | COc1c(C(C)(C)O)cnc2c(F)cc(-c3nc(N[C@@H]4CCOC[C@H]4O)ncc3Cl)cc12 [Example 43]
< 0.01 | 0.01 to 0.1 | O[C@@H]1COCC[C@H]1Nc1ncc(Cl)c(-c2cc(F)c3ncc(C4(O)CC4)c(Cl)c3c2)n1 [Example 44]
0.01 to 0.1 | ≥ 1 | CC1(C)Cc2cnc3c(F)cc(-c4nc(N[C@@H]5COC[C@H]5O)ncc4Cl)cc3c2CN1 [Example 50]
< 0.01 | 0.1 to 1 | Cc1nc2c(F)cc(-c3nc(N[C@@H]4CCOC[C@H]4O)ncc3F)cc2cc1C(C)(C)O [Example 51]
< 0.01 | 0.1 to 1 | CC(C)(O)c1cnc2c(F)cc(-c3nc(N[C@@H]4CCOC[C@H]4O)ncc3Cl)cc2c1F [Example 53]
< 0.01 | ≥ 1 | CC(C)(O)c1cnc2c(F)cc(-c3nc(Nc4ccc(-c5cn[nH]c5)cn4)ncc3F)cc2c1Cl [Example 55]
0.01 to 0.1 | 0.1 to 1 | CCc1c(C(C)(C)O)nnc2c(F)cc(-c3nc(N[C@@H]4CCOC[C@H]4O)ncc3Cl)cc12 [Example 61, (3S,4R)-4-((5-chloro-4-(4-ethyl-8-fluoro-3-(2-hydroxypropan-2-yl)cinnolin-6-yl)pyrimidin-2-yl)amino)tetrahydro-2H-pyran-3-ol]
< 0.01 | 0.01 to 0.1 | [2H]C1([2H])NC(C)(C)Cc2cnc3c(F)cc(-c4nc(N[C@@H]5CCOC[C@H]5O)ncc4F)cc3c21 [Example 62, (3S,4R)-4-((5-fluoro-4-(7-fluoro-3,3-dimethyl-1,2,3,4-tetrahydrobenzo[c][2,6]naphthyridin-9-yl-1,1-d2)pyrimidin-2-yl)amino)tetrahydro-2H-pyran-3-ol]
< 0.01 | 0.1 to 1 | [2H]c1nc2c(F)cc(-c3nc(N[C@@H]4CCOC[C@H]4O)ncc3F)cc2c2c1CC1(CC1)NC2 [Example 70]
0.01 to 0.1 | 0.1 to 1 | Cc1cc(C(C)(C)O)c2cc(-c3nc(N[C@@H]4CCOC[C@H]4O)ncc3Cl)cc(F)c2n1 [Example 75]
0.01 to 0.1 | 0.1 to 1 | Cc1cc(C(C)(C)O)c2cc(-c3nc(N[C@@H]4CCOC[C@H]4O)ncc3F)cc(F)c2n1 [Example 76]
< 0.01 | 0.1 to 1 | Cc1nc2c(F)cc(-c3cc(N[C@@H]4CCOC[C@H]4O)ncc3F)cc2cc1C(C)(C)O [Example 78]
0.01 to 0.1 | ≥ 1 | CC(C)(O)c1cnc2c(F)cc(-c3nc(Nc4ccc(C(=O)CO)cn4)ncc3F)cc2c1Cl [Example 80]
0.01 to 0.1 | 0.1 to 1 | Cc1c(C(C)(C)O)nnc2c(F)cc(-c3nc(N[C@@H]4CCOC[C@H]4O)ncc3Cl)cc12 [Example 87]
< 0.01 | 0.1 to 1 | Cc1nc2c(F)cc(-c3nc(N[C@@H]4CCOC[C@H]4O)ncc3F)cc2c2c1CC(C)(C)NC2 [Example 92]
< 0.01 | 0.01 to 0.1 | [2H]c1nc(N[C@@H]2CCOC[C@H]2O)nc(-c2cc(F)c3nc([2H])c(C(C)(C)O)c(C)c3c2)c1F [Example 95]
0.01 to 0.1 | ≥ 1 | Cc1cc(C(C)(C)O)nc2c(F)cc(-c3nc(N[C@@H]4CCOC[C@H]4O)ncc3F)cc12 [Example 96]
0.01 to 0.1 | 0.1 to 1 | CC(C)(O)c1cnc2c(F)cc(-c3ccnc(N[C@@H]4CCOC[C@H]4O)n3)cc2c1Cl [Example 97]
< 0.01 | 0.1 to 1 | [2H]C1([2H])c2cnc3c(F)cc(-c4nc(N[C@@H]5CCOC[C@H]5O)ncc4F)cc3c2CNC1(C)C [Example 110]
